This is an account of results in patent US9546383B2, “Human pluripotent embryonic stem cells produced by nuclear transfer using a somatic cell nucleus treated with HVJ-E extract and an oocyte from a donor cycle that produced 15 or fewer oocytes” (priority 2013, dated 2017).

Where a SMILES comes first, the peptide text is derived from it. [ ]: non-standard residue; d: D form. d(hArg(Et2)) = CCN=C(NCC)NCCCC[C@@H](N)C(=O)O; hArg(Et2) = CCN=C(NCC)NCCCC[C@H](N)C(=O)O; dPhe(4-Cl) = N[C@H](Cc1ccc(Cl)cc1)C(=O)O; d2Nal = N[C@H](Cc1ccc2ccccc2c1)C(=O)O; d3Pal = N[C@H](Cc1cccnc1)C(=O)O

Experiment [1] deals with Monkey SCNT embryo. Description: Monkey SCNT embryo development after treatment with trichostatin A (TSA). Format: cell-based, rhesus macaque. The procedure:
(§1) However, the quality of such blastocysts and their potential to give rise to stable ESCs remained unknown until this current disclosure. A total of 16 monkey SCNT blastocysts produced with TSA treatment were plated on mitotically inactivated mouse embryonic fibroblast (mEF) feeders. None of these blastocysts produced NT-ESC lines (Table 1). Lower TSA concentrations as well as shorter exposure times to TSA had no effect on monkey SCNT blastocyst development and ESC isolation.
(§2) Oocyte collections, SCNT, embryo culture and NT-ESC isolation procedures were performed as previously described (Byrne et al, 2007 supra; Sparman et al., 2009, supra; Sparman et al, 2010 supra).

Experiment [2] concerns Monkey SCNT embryo. The settings on record: 37.5 nM TSA; from 4% without; cited from earlier work.
The subject of experiment [3] is monkey SCNT blastocysts. Description: Monkey NT-ESC isolation after treatment with TSA. In kind it is cell-based, rhesus macaque. As to the method: as §1, §2
Experiment [4] concerns human SCNT embryos. The experiment can be described thus: Human SCNT with caffeine during enucleation and fusion: spindle formation and blastocyst development. In kind it is cell-based. The procedure:
As expected, somatic cell nuclei introduced into oocyte cytoplasts under these conditions efficiently formed spindle-like structures detectable under birefringence microscope (83.3%, 10/12) (FIG. 2D). […] Human SCNT blastocysts in this group contained visible, prominent ICMs similar to that observed for IVF embryos (FIG. 2E).
Enucleation of MII spindles were performed as described previously (Tachibana et al., 2013 supra). […] The droplet was covered with tissue culture oil and oocytes maintained at 37° C. for 10-15 min before spindle removal. The dish was then mounted on the stage of an inverted microscope (Olympus IX71®) equipped with a stage warmer (http://www.tokaihit.com) Narishige micromanipulators, Oosight™ Imaging System (www.cri-inc.com) and a laser objective (www.hamiltonthorne.com). An oocyte was positioned by a holding pipette so that the spindle was situated between the 2 o'clock and 4 o'clock position. The zona pellucida next to the spindle was drilled with a laser pulse and an enucleation pipette was inserted through the opening. A small amount of cytoplasm surrounded by plasma membrane and contacting spindle was aspirated into the pipette. Next, a disaggregated fibroblast was aspirated into a micropipette and briefly transferred to the drop containing HVJ-E extract (Ishihara Sangyo Kaisha Ltd). […]

The test system of experiment [5] is human SCNT embryos. The experiment can be described thus: Human SCNT embryo development and NT-ESC derivation by GnRH agonist or antagonist treatment of oocyte donor. Format: cell-based. Conditions: oocytes from treated donors. The procedure:
A retrospective analysis of ovarian stimulation procedures was conducted in order to determine the effect of the number of oocytes retrieved per cycle on human SCNT embryo development and NT-ESC derivation outcomes. Oocyte donation cycles were divided into three groups based on the range of collected mature MII oocytes—10 or fewer oocytes per cycle (5 donors), between 11 to 15 oocytes (2 donors) and more than 16 oocytes per cycle (3 donors). While survival after enucleation, fusion, pronuclear formation and cleavage of SCNT embryos were similar between these groups, more embryos derived from the donors producing ≧16 MII oocytes/cycle arrested after the 8-cell stage than the other two groups (FIG. 5A). In addition, the quality of SCNT blastocysts also negatively correlated with the number of collected oocytes per cycle. […] The peak estradiol (E2) level measured in blood of egg donors prior to hCG priming positively correlated with the subsequent yield of oocytes (FIG. 10). […]
Optimal stimulation protocols giving the best chance of producing oocytes capable of producing NT-ESCs using SCNT were sought. The impact of GnRH agonists and antagonists used to suppress the pituitary function of egg donors were first assessed. Prior to stimulations, the anti-mullerian hormone (AMH) level and antral follicle counts (AFC) were measured for each individual egg donor (Table S3). […]

The nature of experiment [6]: Ovarian stimulation of egg donors under different pituitary suppression regimens. Format: in vivo, human. The settings on record: antagonist 6 cycles, agonist 4 cycles. As to the method: Optimal stimulation protocols giving the best chance of producing oocytes capable of producing NT-ESCs using SCNT were sought. The impact of GnRH agonists and antagonists used to suppress the pituitary function of egg donors were first assessed. Prior to stimulations, the anti-mullerian hormone (AMH) level and antral follicle counts (AFC) were measured for each individual egg donor (Table S3). Donors with higher AMH and AFC profiles are associated with high ovarian reserve and received the GnRH agonist Lupron® (4 cycles) while the remaining donors were provided with the GnRH antagonist (ganirelix, 6 cycles) (Table 3).
Ovarian stimulation protocols followed established clinical IVF guidelines as we described previously (Tachibana et al, 2013 supra). Briefly, a combination of recombinant follicle stimulating hormone (rFSH) and human menopausal gonadotropins (hMG) and either GnRH agonist (Lupron®, Tap Pharmaceutical Products, Lake Forest, Ill.) or antagonist (Ganirelix®, Merck & Co, Whitehouse Station, N.J.) were given. Human chorionic gonadotropin (hCG) was prescribed to trigger oocyte maturation. Self administration of injectable rFSH (sc, Follistim®, Merck & Co, Whitehouse Station, N.J.) commenced on cycle day 2 or 3 and continued for approximately 8-12 days. The starting gonadotropin dose was 75-125 IU/day and 1-2 A hMG (sc, Menopur®, Ferring Pharmaceuticals, Inc. Parsippany, N.J.); the dose was adjusted per individual response using an established step-down regimen until the day of hCG injection. Ovarian response and follicular growth were monitored by transvaginal ultrasound and measurements of serum estradiol levels. When two or more follicles reached >18 mm in diameter, subjects received hCG ([…], sc, Ovidrel®, EMDSerono, Rockland, Mass.) to trigger maturation. Thirty-six hours following hCG injection, subjects underwent oocyte retrieval via transvaginal follicular aspirations.

The mark [7] stands for this setting: TSA 10 nM, 12 h, 23 plated blastocysts.

In the case of `CC(/C=C/C(=O)NO)=C\[C@@H](C)C(=O)c1ccc(N(C)C)cc1` [TSA, trichostatin A], in experiment [1] (TSA 5 nM for 12 h, N 212), the “8-cell (%)” value is on record as “(92.8) %”; the “8-cell, number” value is 192; the “Blastocysts (%)” value was 14.5%; the “Blastocysts, number” value amounted to 30. Moreover, in experiment [1] (TSA 5 nM for 12 h, N 212), the “CM (%)” value was “(26.0) %”; the “CM, number” value is recorded as 58; the “PN (%)” value is given as “(98.6) %”; the “PN, number” value was found to be 207. For the same compound, in experiment [1] (TSA 5 nM for 12 h, N 212), the “fused (%)” value is “(99.1) %” and the “fused, number” value was 210. For the same compound, in experiment [1] (TSA 10 nM for 12 h, N 571), the “8-cell (%)” value is on record as “(93.7) %”; the “8-cell, number” value is reported as 494; the “Blastocysts (%)” value came out at 18.8%; the “Blastocysts, number” value stood at 99. Further, in experiment [1] (TSA 10 nM for 12 h, N 571), the “CM (%)” value is on record as “(27.9) %”; the “CM, number” value was 147; the “PN (%)” value is reported as “(94.4) %”; the “PN, number” value is on record as 535. In experiment [1] (TSA 10 nM for 12 h, N 571), the “fused (%)” value is recorded as “(99.3) %” and the “fused, number” value stood at 567. For the same compound, in experiment [1] (TSA 10 nM for 24 h, N 108), the “8-cell (%)” value is “(97.1) %”; the “8-cell, number” value is recorded as 100; the “Blastocysts (%)” value was found to be 24.3%; the “Blastocysts, number” value was 25. Besides, in experiment [1] (TSA 10 nM for 24 h, N 108), the “CM (%)” value is given as “(32.0) %”; the “CM, number” value is given as 33; the “PN (%)” value is “(100) %”; the “PN, number” value was 104. Moreover, in experiment [1] (TSA 10 nM for 24 h, N 108), the “fused (%)” value was “(95.4) %” and the “fused, number” value is given as 104. In experiment [1] (TSA 37.5 nM for 24 h, N 511), the “8-cell (%)” value is reported as “(90.3) %”; the “8-cell, number” value is 418; the “Blastocysts (%)” value is recorded as 18.4%; the “Blastocysts, number” value is reported as 85. In addition, in experiment [1] (TSA 37.5 nM for 24 h, N 511), the “CM (%)” value was “(23.1) %”; the “CM, number” value turned out to be 107; the “PN (%)” value is “(99.0) %”; the “PN, number” value stood at 498. In addition, in experiment [1] (TSA 37.5 nM for 24 h, N 511), the “fused (%)” value is “(98.4) %” and the “fused, number” value amounted to 503. The “effect on blastocyst rates” value in experiment [1] (reducing TSA concentration to 10 nM or shortening exposure from 24 h to 12 h) was “did not affect blastocyst rates”. Further, the “development of monkey SCNT embryos to blastocysts” value in experiment [2] was 18%. In experiment [3] (TSA 5 nM, 12 h, 7 plated blastocysts), the “# NT-ESCs” value is reported as 0. In experiment [3] (setting [7]), the “# NT-ESCs” value came to 3 and the “# NT-ESCs (%)” value was 13%. Moreover, in experiment [3] (TSA 10 nM, 24 h, 4 plated blastocysts), the “# NT-ESCs” value is 0.

Turning to `Cn1c(=O)c2c(ncn2C)n(C)c1=O` [caffeine], in experiment [4] (1.25 mM caffeine during enucleation and fusion), the “blastocyst development of caffeine treated embryos” value was 23.5%. For the same compound, in experiment [4] (1.25 mM caffeine during enucleation and somatic cell fusion, 10/12), the “somatic cell nuclei forming spindle-like structures” value amounted to 83.3%.

Consider `CCNC(=O)[C@@H]1CCCN1C(=O)[C@H](CCCNC(=N)N)NC(=O)[C@H](CC(C)C)NC(=O)[C@@H](CC(C)C)NC(=O)[C@H](Cc1ccc(O)cc1)NC(=O)[C@H](CO)NC(=O)[C@H](Cc1c[nH]c2ccccc12)NC(=O)[C@H](Cc1c[nH]cn1)NC(=O)[C@@H]1CCC(=O)N1` [GnRH agonist], for which the “SCNT embryo development beyond the 8-cell stage” value in experiment [5] is “impaired”. The “Peak E2” value in experiment [6] turned out to be 2709 ± 1597.3.

As to `CCN=C(NCC)NCCCC[C@H](NC(=O)[C@H](CC(C)C)NC(=O)[C@@H](CCCCNC(=NCC)NCC)NC(=O)[C@H](Cc1ccc(O)cc1)NC(=O)[C@H](CO)NC(=O)[C@@H](Cc1cccnc1)NC(=O)[C@@H](Cc1ccc(Cl)cc1)NC(=O)[C@@H](Cc1ccc2ccccc2c1)NC(C)=O)C(=O)N1CCC[C@H]1C(=O)N[C@H](C)C(N)=O` [GnRH antagonist, ganirelix] (Ac-[d2Nal][dPhe(4-Cl)][d3Pal]SY[d(hArg(Et2))]L[hArg(Et2)]P[dA]-NH2), the NT-ESC lines derived result in experiment [5] was “six”. Further, in experiment [6], the “# oocytes (MII oocytes collected per cycle, mean±SD)” value is 11.7±5.6 and the “Peak E2” value was 2568.2 ± 806.1.
